Laboratory results published in patent publication US6652860B1, “Peptide, apoEp 1.B, compositions and uses thereof” (University of Western Ontario, priority 1997, dated 2003).
Where no end group is shown, it is not given here.

Tests used:
[1] = system: iliofemoral artery of the rat; experiment: Balloon angioplasty injury model, plaque development in iliofemoral artery; assay type: in vivo; details: treated rats
Method: To investigate the role of apoEp1.B peptide in inflammation, particularly in response to arterial injury, a balloon angioplasty injury model which has been well characterized by Dr. Alex Lucas (Lucas et al. 1996 Circ. 94:2898-900) was used. 300 μg/ml of apoEp1 or apoEp1.B peptide were infused intra-arterially immediately prior to angioplasty at the site of injury in the iliofemoral artery of the rat. Positive control SERP-1 and negative control saline alone were also used. The rats were monitored carefully and euthanized 6 weeks after treatment and iliofemoral arteries were assessed for plaque development by histochemistry.

PU5-1.8 cells [2] = experiment: DC marker changes (B7-1 FACS) of PU5-1.8 cells incubated with modified apoEp1.B peptides; assay type: cell-based, murine; details: 20 hours
Method: Murine monocytic PU5-1.8 and J77A1.4 transformed cell lines, human monoblastic leukemia THP-1 and U-937, and murine B cell lymphoma A20 cells were cultured in RPMI 1640 medium (Gibco Laboratories, Grand Island, N.Y.) containing […] 2ME, 10 mM HEPES, 2 mM glutamine, 5.0 IU/ml penicillin streptomycin (Gibco) and 10%. heat inactivated Fetal Bovine Serum (FBS) (Hyclone Laboratories Inc., Logan, Utah)(cRPMI).
1×10^6 cells were washed with ice cold PBS and resuspended in 25 μl PBS and incubated with 10 μl normal mouse serum and fluorochrome conjugated anti-mouse D11a, CD11b, CD14, MHC class II, CD95, CD62L, CD62E, B7-1, B7-2 and ICAM-1 Pharmingen, Mississauga, Canada) monoclonal antibodies (mAb's) for 45 minutes on ice. endritic cell markers DEC-205, 33D1, CD11c (N418) unconjugated antibodies were imilarly treated, however, following primary antibody incubation,cells were washed 3 times and a secondary goat anti-rat (for 33D1 and DEC-205 ab's) and goat anti-hamster (for CD11c ab) fluorochrome-conjugated antibody was then added for 45 min on ice. Cells were then washed three times. All samples were resuspended in 300 μl PBS and the fluorescence of stained cells was analyzed on a FACScan flow cytometer (Becton Dickinson, Mountain View, Calif.) and data collected was analyzed using Lysis II (Becton-Dickinson) software. […]

immune cells = experiment: Activation and differentiation of immune cells; assay type: cell-based
splenocytes = experiment: Surface marker expression on unprimed splenocytes (FACS); assay type: cell-based, mice; details: splenocytes (data not shown)
Method: (§1) 1×10^6 cells were washed with ice cold PBS and resuspended in 25 μl PBS and incubated with 10 μl normal mouse serum and fluorochrome conjugated anti-mouse D11a, CD11b, CD14, MHC class II, CD95, CD62L, CD62E, B7-1, B7-2 and ICAM-1 Pharmingen, Mississauga, Canada) monoclonal antibodies (mAb's) for 45 minutes on ice. endritic cell markers DEC-205, 33D1, CD11c (N418) unconjugated antibodies were imilarly treated, however, following primary antibody incubation,cells were washed 3 times and a secondary goat anti-rat (for 33D1 and DEC-205 ab's) and goat anti-hamster (for CD11c ab) fluorochrome-conjugated antibody was then added for 45 min on ice. Cells were then washed three times. All samples were resuspended in 300 μl PBS and the fluorescence of stained cells was analyzed on a FACScan flow cytometer (Becton Dickinson, Mountain View, Calif.) and data collected was analyzed using Lysis II (Becton-Dickinson) software.
(§2) Morphologically apoEp1.B-treated cells appeared DC-like. This was confirmed this by FACS analysis. Unprimed BALB/c splenocytes and PU5-1.8 cells were incubated for 24 hr with 100 μg/ml apoEp1.B or control peptide apoEp1.D and then stained for FACS analysis.
There were no changes in the expression of CD16/32 at any time.
Unprimed B6 and NOD splenocytes were incubated with 100 μg/ml apoEp1.B or apoEp1.D to determine whether apoEp1.B was strain-specific. […]

[3] = system: BALB/c naive T cells co-cultured with NOD splenocytes; experiment: Mixed leukocyte reaction, T cell allostimulatory activity of treated APC's; assay type: cell-based, mice; details: particularly at 4×10^3 APC's per well
Method: Primary allogeneic MLR was set up with NOD splenocytes as stimulators and nylon wool enriched BALB/c naive T cells as responders. Stimulator cells were pre-incubated for 3 days with different combinations of apoEp1.B, GM-CSF, and PU5-1.8 supernatant containing TNF. Stimulator cells were then treated with mitomycin C (50 μg/ml, 20 min at 37° C.; Sigma) and co-cultured with 4×10^4 responder for 3 days at which time cells were pulsed with 50 μl [^3H]-TdR (0.5 μCi/well) for 24 hr. Cells were harvested (Tomtec) and [^3H]-TdR incorporation was measured on a Microbeta Liquid Scintillation Counter (Wallac). Each bar represents the mean cpm from triplicate cultures.
To measure the T cell allostimulatory or inhibitory ability of these DC's, 4×10^4 enriched BALB/c naive T cells were co-cultured with 40, 400, 4000 and 40,000 mitomycin C-treated NOD splenocytes which had been incubated with various stimualants for 3 d. T cell proliferation was measured following 3 days of co-culture by [^3H]-TdR incorporation. Bars represent the mean of triplicate wells (cpm+/−S.D.). * and ** represent p<0.05 and p<0.001, respectively in 2-way ANOVA's compared to medium alone (nil) controls. […] Upon combining responder T cells with APC, various exogenous factors were added, including 20 μg/ml Con A and 5 μg/ml apoEp1.B. Very little proliferation was detected in wells containing T cells alone or APC alone.

[4] = system: Unprimed splenocytes, enriched spleen monocytes and monocytic PU5-1.8 and J77A4.1 cell lines; experiment: Dendritic-like cell morphology in vitro; assay type: cell-based, BALB/c mice; details: after 2 hr, optimally at 100 μg/ml
Method: Unprimed splenocytes, enriched spleen monocytes and monocytic PU5-1.8 and J77A4.1 cell lines from BALB/c mice were incubated with 0, 1, 10, or 100 μg/ml apoEp1.B (239-252) or negative control apoEp1.D (236-249) peptide to assess activity. […] After 24 hr, morphologically these cells appeared less rounded, more granular.

PU5-1.8 cells [5] = experiment: DC-like surface marker expression on PU5-1.8 cells (FACS); assay type: cell-based, murine; details: 100 μg/ml, 24 hr, 10^5 PU5-1.8 cells
Method: as §1, §2
To assess whether apoEp1.B-induced phenotypic changes are dose-dependent, 10^5 PU5-1.8 cells were incubated for 20 hr with 0 (medium), 1, 10 or 100 μg/ml apoEp1.B in 24-well plates and were then stained for FACS analysis. […]

Substance: TQQIRLQAEIFQAR [apoEp1.B, TQQIRLQAEIFQAR]
- adverse effects [1]: No adverse effects were observed

Substance: EEQ TQQ IRL QAE IFQ AR (EEQTQQIRLQAEIFQAR; Murine) [apoEp1]
- DC Marker Changes (PU5-1.8 cells [2]; Table 1 elongations and truncations, 100 μg/ml peptide, 10^5 PU5-1.8 cells, B7-1 stain, FACS): slight
- induces activation and differentiation of immune cells (immune cells): does not induce DC's
- CD40 expression (splenocytes): increase in CD40
- L-selectin expression (splenocytes): decrease in L-selectin

Substance: GM-CSF: cytokine used to pre-incubate stimulator cells in MLR
- allostimulation after APC pre-incubation [3]: dramatic increase in allostimulation

Substance: apoE: Human plasma VLDL purified apoE (Calbiochem) was used as native apoE
- induces activation and differentiation of immune cells (immune cells): not

Substance: apoEp1.D: negative control apoEp1.D (236-249) peptide (VAEVRAKLEEQAQQ; UniProt P02649 254-267, looked up, fragment)
- detachment from plastic plates and aggregation in suspension [4]: not

Substance: AQQIRLQAEAFQAR (listed as Homo sapiens) [human apoEp1.B]
- effect on surface marker changes compared to apoEp1.B (PU5-1.8 cells [2]; 100 μg/ml, PU5-1.8 cells): slightly reduced effect
- cell clustering and marker increase compared to murine apoEp1.B (PU5-1.8 cells [5]): to a lesser degree
